Data on ten compounds can be found in ChEMBL document CHEMBL1133711 (J Med Chem, 2000).

Chain of 5-hydroxytryptamine receptor 6 (P50406 whole entry): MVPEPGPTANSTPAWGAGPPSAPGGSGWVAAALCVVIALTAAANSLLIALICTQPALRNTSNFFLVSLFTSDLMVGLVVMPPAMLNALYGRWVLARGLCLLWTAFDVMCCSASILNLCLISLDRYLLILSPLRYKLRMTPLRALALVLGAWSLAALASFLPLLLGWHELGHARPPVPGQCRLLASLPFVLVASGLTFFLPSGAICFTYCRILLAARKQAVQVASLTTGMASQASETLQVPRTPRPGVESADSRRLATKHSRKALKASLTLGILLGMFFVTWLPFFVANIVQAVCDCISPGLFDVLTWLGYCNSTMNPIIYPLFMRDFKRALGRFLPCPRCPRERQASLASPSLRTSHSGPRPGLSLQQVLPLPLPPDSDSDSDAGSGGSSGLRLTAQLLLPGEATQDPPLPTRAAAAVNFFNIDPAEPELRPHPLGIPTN

The first test has as its target 5-hydroxytryptamine receptor 6 (Homo sapiens, UniProt P50406). Nature of the test: Binding affinity for human 5-hydroxytryptamine 6 receptor expressed in HEK 293 human embryonic kidney cells, [3H]-lysergic acid diethylamide as radioligand. The format is cell-based, HEK293.
One may read the Ki as the equilibrium dissociation constant of an inhibitor or competing ligand from its target. Higher therefore signals lower affinity. With `Cc1[nH]c2ccc(O)cc2c1CCN`, the Ki came out at 46 nM.
On the same count and under the same terms, the result for `CCc1[nH]c2ccc(OC)cc2c1CCN(C)C` reads 52 nM; that for `COc1ccc2[nH]c(C)c(CCN)c2c1`, 98 nM; that for `COc1ccc2[nH]c(C)c(CCN(C)C)c2c1`, 80 nM.
Still for that read-out and setting: the result for `CCn1cc(CCN(C)C)c2cc(OC)ccc21` reads 240 nM.
On the same count and under the same terms, the result for `COc1ccc2c(c1)c(CCN(C)C)cn2C(C)C` reads 130 nM.
In the case of `COc1ccc2c(c1)c(CCN(C)C)cn2C`, affinity was put at a Ki of 510 nM.
The same measure, in the same setting: the result for `COc1ccc2[nH]c(-c3ccccc3)c(CCN(C)C)c2c1` reads 54 nM.
Same read-out and setting: the figure for `Cc1[nH]c2ccccc2c1CCN(C)C` is 300 nM; for `CCCn1cc(CCN(C)C)c2cc(OC)ccc21` it is 200 nM.

For another test, the target named is T1, 5-hydroxytryptamine receptor 3A (Homo sapiens, UniProt P46098).
T1 sequence (P46098 whole entry): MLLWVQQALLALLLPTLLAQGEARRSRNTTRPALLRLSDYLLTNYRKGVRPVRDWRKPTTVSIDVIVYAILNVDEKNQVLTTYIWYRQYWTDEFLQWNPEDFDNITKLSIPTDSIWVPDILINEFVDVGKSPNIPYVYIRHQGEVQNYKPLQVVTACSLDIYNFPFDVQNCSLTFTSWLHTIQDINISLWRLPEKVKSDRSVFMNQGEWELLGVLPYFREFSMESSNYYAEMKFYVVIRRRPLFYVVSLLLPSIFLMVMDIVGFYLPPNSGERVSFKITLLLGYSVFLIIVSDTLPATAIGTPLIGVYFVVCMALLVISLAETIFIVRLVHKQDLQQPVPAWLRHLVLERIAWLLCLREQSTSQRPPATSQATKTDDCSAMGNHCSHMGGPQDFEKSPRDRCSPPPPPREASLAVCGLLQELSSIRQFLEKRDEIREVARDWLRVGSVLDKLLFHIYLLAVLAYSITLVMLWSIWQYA
Nature of the test: Compound was evaluated for its binding affinity towards 5-hydroxytryptamine 3 receptor.
For `Cc1[nH]c2ccc(O)cc2c1CCN`, the affinity corresponds to a Ki of 1200 nM.
Still for that read-out and setting: the result for `COc1ccc2[nH]c(C)c(CCN)c2c1` reads above 10000 nM.
